From ChEMBL document CHEMBL4419164, “Methods and compositions for inhibiting cnksr1” (2018)
Calls of active or inactive are those of the source. The rule behind the calls is not given here.

What was measured:
[1] = target: T1, Connector enhancer of kinase suppressor of ras 1 (Homo sapiens) (UniProt Q969H4); test: Inhibition of GFP-tagged CNKSR1 (unknown origin) expressed in HEK293T cells assessed as inhibition of direct binding of CNKSR1 to mut-KRAS at 50 uM incubated for 4 hrs by fluorescence lifetime imaging microscopy; type: cell-based
T1 sequence (whole entry): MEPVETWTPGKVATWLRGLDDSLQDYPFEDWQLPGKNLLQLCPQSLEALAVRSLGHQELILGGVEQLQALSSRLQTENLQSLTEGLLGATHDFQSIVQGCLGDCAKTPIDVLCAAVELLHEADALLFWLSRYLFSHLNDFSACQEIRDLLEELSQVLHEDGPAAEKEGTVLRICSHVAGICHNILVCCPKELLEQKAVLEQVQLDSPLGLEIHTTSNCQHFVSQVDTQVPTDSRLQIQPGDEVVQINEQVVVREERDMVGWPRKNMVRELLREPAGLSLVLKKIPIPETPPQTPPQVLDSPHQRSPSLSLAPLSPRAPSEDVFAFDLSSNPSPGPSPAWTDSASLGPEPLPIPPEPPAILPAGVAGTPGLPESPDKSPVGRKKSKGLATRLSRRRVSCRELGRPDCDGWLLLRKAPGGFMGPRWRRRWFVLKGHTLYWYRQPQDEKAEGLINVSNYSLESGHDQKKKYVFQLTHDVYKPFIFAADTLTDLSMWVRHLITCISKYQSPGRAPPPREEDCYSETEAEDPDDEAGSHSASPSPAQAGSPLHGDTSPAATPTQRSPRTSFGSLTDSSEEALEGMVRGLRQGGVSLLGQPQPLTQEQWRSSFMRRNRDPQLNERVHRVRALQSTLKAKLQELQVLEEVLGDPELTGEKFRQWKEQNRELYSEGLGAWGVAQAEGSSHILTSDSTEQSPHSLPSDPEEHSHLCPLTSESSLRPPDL

[2] = target: T2, 3-phosphoinositide-dependent protein kinase 1 (Homo sapiens) (UniProt O15530); test: Binding affinity to PDPK1 PH-domain (unknown origin) at 0.01 to 50 uM by SPR spectroscopy
T2 sequence (whole entry): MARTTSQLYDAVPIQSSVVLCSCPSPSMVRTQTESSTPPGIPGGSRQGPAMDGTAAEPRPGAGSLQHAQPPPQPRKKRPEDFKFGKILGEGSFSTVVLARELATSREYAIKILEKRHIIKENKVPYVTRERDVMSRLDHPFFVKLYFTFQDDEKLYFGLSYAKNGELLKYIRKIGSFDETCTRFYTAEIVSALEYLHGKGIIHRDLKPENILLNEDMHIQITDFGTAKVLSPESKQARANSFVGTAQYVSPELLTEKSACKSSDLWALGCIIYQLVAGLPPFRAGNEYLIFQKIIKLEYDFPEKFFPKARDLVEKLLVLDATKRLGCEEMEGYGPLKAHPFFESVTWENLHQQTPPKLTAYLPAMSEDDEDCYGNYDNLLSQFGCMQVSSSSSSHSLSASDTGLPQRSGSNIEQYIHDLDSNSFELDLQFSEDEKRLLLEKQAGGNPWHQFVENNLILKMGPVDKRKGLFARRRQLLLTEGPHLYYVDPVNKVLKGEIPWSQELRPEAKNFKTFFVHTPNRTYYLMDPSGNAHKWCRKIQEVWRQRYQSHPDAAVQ

[3] = target: T3, carboxylesterase 1 (liver carboxylesterase 1) (Homo sapiens, UniProt P23141); test: Stability assessed as recombinant human carboxyesterase-1 mediated compound hydrolysis by measuring half life at 50 ug/ml at 37 degC at pH 7.4; type: ADME; conditions: recombinant human carboxylesterase-1, pH 7.4
T3 sequence (P23141 whole entry): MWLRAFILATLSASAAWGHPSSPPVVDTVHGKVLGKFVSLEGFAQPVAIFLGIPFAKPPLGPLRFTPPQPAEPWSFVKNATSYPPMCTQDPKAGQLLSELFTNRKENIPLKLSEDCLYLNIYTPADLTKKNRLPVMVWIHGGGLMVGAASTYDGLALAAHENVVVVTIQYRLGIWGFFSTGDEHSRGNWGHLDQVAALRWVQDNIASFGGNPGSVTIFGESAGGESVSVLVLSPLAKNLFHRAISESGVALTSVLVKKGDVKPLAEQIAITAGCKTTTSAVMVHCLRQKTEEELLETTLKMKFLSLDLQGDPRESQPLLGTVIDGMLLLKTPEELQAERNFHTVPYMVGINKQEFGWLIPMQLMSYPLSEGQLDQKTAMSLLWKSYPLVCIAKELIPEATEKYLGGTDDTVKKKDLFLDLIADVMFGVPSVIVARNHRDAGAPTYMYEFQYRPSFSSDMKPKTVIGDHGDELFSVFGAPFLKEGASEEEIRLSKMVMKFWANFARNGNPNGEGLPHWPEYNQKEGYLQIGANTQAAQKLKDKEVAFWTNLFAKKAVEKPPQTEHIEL

NCI-H1373 = test: Growth inhibition of human NCI-H1373 cells relative to control; type: functional, cell-based
HCC515 = test: Growth inhibition of human HCC515 cells incubated for 3 days; type: functional, cell-based; conditions: HCC515, 72 h
[4] = target: T1, Connector enhancer of kinase suppressor of ras 1 (Homo sapiens); test: Inhibition of CNKSR1 (unknown origin) assessed as reduction in inhibition of KRas signaling effectors by measuring p-MAPK levels at 20 uM by cell based assay
[5] = Half life in 10% fetal bovine serum at 50 ug/ml at 37 degC at pH 7.4; type: ADME, cell-free, Bos taurus; conditions: cattle
[6] = target: T1, Connector enhancer of kinase suppressor of ras 1 (Homo sapiens); test: Inhibition of GFP-tagged CNKSR1 (unknown origin) expressed in HEK293T cells assessed as reduction in total mutant-KRas protein at 50 uM incubated for 4 hrs by confocal imaging assay; type: cell-based
[7] = target: T4, Connector enhancer of kinase suppressor of ras 1 (Homo sapiens, UniProt Q969H4); test: Binding affinity to CNKSR1 PH-domain (unknown origin) by SPR spectroscopy; conditions: read-out: Kd
T4 sequence (Q969H4 whole entry): T1 sequence (whole entry)

A549 = test: Growth inhibition of human A549 cells relative to control; type: functional, cell-based
NCI-H2122 = test: Growth inhibition of human NCI-H2122 cells incubated for 3 days; type: functional, cell-based; conditions: NCI-H2122, 72 h
[8] = Half life in mouse plasma at 50 ug/ml at 37 degC at pH 7.4; type: ADME, cell-free
HCC95 = test: Growth inhibition of human HCC95 cells incubated for 3 days; type: functional, cell-based; conditions: HCC95, 72 h

inhibition [1]: Active
Activity [2]: inactive
half-life at 50 ug/ml [3]: 19 min
IC50 (HCC515): 70 µM
inhibition [4]: Active
half-life at 50 ug/ml [5]: 790 min
inhibition [6]: Active
Kd [7]: 1.8 to 3.2 µM
IC50 (NCI-H2122): 27 µM
half-life at 50 ug/ml [8]: 6.3 min
IC50 (HCC95): > 100 µM
SMILES: CCOC(=O)Cc1nn(Cc2nc(-c3ccc(C)cc3)cs2)c(=O)c2ccccc12
growth inhibition (GI) (NCI-H1373): Active
growth inhibition (GI) (A549): Active
